Nine molecules from ChEMBL document CHEMBL1201862, “PubChem BioAssay data set” (2004) can be followed below.

By GI50 is commonly meant the concentration giving 50% growth inhibition.

Holding throughout (experiment): DTP human tumour cell line panel, 48 h
Assay [1] has as its system A549.
Assay [2] has as its system COLO 205.
The test system of assay [3] is HCC 2998.
For assay [4], the system named is HCT-15.
Assay [5] has as its system HL-60.
Assay [6] concerns HOP-62.
Assay [7] has as its system NCI-H460.
Assay [8] has as its system NCI-H522.
Assay [9] relates to OVCAR-3.
Assay [10] relates to OVCAR-8.
The subject of assay [11] is SF-268.
Assay [12] has as its system SK-MEL-28.
Assay [13] has as its system SNB-75.
Assay [14] concerns SW-620.
Assay [15] deals with UACC-62.
Assay [16] deals with UO-31.
The subject of assay [17] is RXF 393.
The test system of assay [18] is SR.

SMILES strings stand for the structures.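 A five-concentration, 48-hour dose response in 96-well plates underlies each endpoint, interpolated linearly between surrounding concentrations. GI50 = concentration required for 50% inhibition of growth.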 Active and inactive are the calls of the source. No stated cut-off is given here; in the data, active = GI50 up to about 1.1 µM and inactive = higher.

Turning to `CC(=O)Oc1c(OC(C)=O)c(-c2ccc(O)c(O)c2)c(O)c(O)c1-c1ccc(O)cc1`, the GI50 in assay [1] was > 100 µM (inactive); in [2], > 100 µM (inactive); in assay [3] it was > 100 µM (inactive); in [4] it was over 100 µM; in assay [5], 54.2 µM (inactive); in assay [6], > 100 µM (inactive). In addition, the GI50 is > 100 µM (inactive) in [7]; 17.7 µM (inactive) in [8]; > 100 µM (inactive) in assay [9]; 46.2 µM (inactive) in assay [10]; > 100 µM (inactive) in [11]; > 100 µM (inactive) in [12]. The GI50 in [13] is 97.5 µM (inactive); in [14], 42.7 µM (inactive); in assay [15], 27.4 µM (inactive); in [16] it was > 100 µM (inactive).
As for `COc1cccc(NC(=O)C(=O)C(C(=O)c2ccccc2F)C2OC(=O)c3ccccc32)c1` (stereo not given), the GI50 was 45.3 µM (inactive) in [1]; 14.6 µM (inactive) in [2]; 17.9 µM (inactive) in assay [3]; 28.7 µM in assay [4]; 20.7 µM (inactive) in assay [5]; 42.2 µM (inactive) in assay [6]. The GI50 in [7] is 35.1 µM (inactive); in assay [8], 16.1 µM (inactive); in [10], 21.8 µM (inactive); in assay [17], 28.1 µM (inactive); in assay [11], 30.5 µM (inactive); in [12], 58.6 µM (inactive). For the same molecule, the GI50 in assay [13] was 24.9 µM (inactive); in [18], 16.6 µM (inactive); in [14], 42.6 µM (inactive); in assay [15], 26 µM (inactive); in [16] it was 34.4 µM (inactive).
On to `CCOC(=O)CCn1[nH]c(=O)c(Cl)c(Cl)c1=O`, for which the GI50 in [1] was > 100 µM (inactive); in assay [2] it was > 100 µM (inactive); in assay [3], > 100 µM (inactive); in [4], over 100 µM; in assay [5], > 100 µM (inactive); in assay [6], > 100 µM (inactive). For the same molecule, the GI50 in assay [7], in assay [8], in [9], in assay [10], in assay [17] and in assay [11] was > 100 µM (inactive) throughout. Besides, the GI50 in [12], in assay [13], in assay [14], in [15] and in [16] was > 100 µM (inactive) throughout.
For the molecule `COc1c2ccoc2c(S(=O)(=O)Nc2ccc(Cl)cc2)c2oc(C)cc(=O)c12`, the GI50 was > 100 µM (inactive) in assay [1]; > 100 µM (inactive) in assay [2]; > 100 µM (inactive) in assay [3]; over 100 µM in assay [4]; 23.9 µM (inactive) in assay [5]; > 89.5 µM (inactive) in assay [6]. For the same molecule, the GI50 in assay [7] is > 100 µM (inactive); in assay [8] it was 73.6 µM (inactive); in [9], > 100 µM (inactive); in assay [10], 58.3 µM (inactive); in assay [17] it was 25.1 µM (inactive); in assay [11] it was 52.6 µM (inactive). Further, the GI50 in assay [12] is > 100 µM (inactive); in assay [13], 27.2 µM (inactive); in assay [14], > 100 µM (inactive); in assay [15], > 100 µM (inactive); in assay [16], > 50.9 µM (inactive).
`CCN(CC)CCCNC(=O)c1ccccc1Nc1c(Cl)cccc1Cl`: the GI50 in assay [1] is 15.7 µM (inactive); in [2], 12.7 µM (inactive); in assay [3], 7.03 µM (inactive); in assay [4], 12.6 µM; in [5] it was 3.18 µM (inactive); in [6], 11.9 µM (inactive). Besides, the GI50 in [10] is 15.7 µM (inactive); in assay [17] it was 8.11 µM (inactive); in assay [11], 15.5 µM (inactive); in [12], 2.94 µM (inactive); in assay [13], 3.43 µM (inactive); in assay [18], 10.8 µM (inactive). Further, the GI50 in assay [14] was 13.6 µM (inactive); in assay [15], 12 µM (inactive); in assay [16], 6.79 µM (inactive).
With `O=C(O)CCCCCCC[C@@H]1S[C@H]1CCCCCCO`, the GI50 was > 100 µM (inactive) in assay [1]; > 100 µM (inactive) in assay [2]; > 100 µM (inactive) in assay [3]; over 100 µM in assay [4]; > 100 µM (inactive) in [5]; > 100 µM (inactive) in assay [6]. The GI50 in assay [7], in [8], in assay [9], in assay [10], in [17] and in assay [11] was > 100 µM (inactive) in each case. Moreover, the GI50 in [12], in assay [13], in assay [14], in [15] and in assay [16] was > 100 µM (inactive) throughout.
Regarding `CC(C)CC/N=c1/cc2n(-c3ccc(Cl)cc3)c3ccccc3nc-2cc1Nc1ccc(Cl)cc1`, the GI50 was 15.3 µM (inactive) in assay [1]; 1.95 µM (inactive) in assay [2]; 3.86 µM (inactive) in assay [3]; 3.42 µM in [4]; 2.51 µM (inactive) in [5]; 8.71 µM (inactive) in assay [6]. Besides, the GI50 in assay [7] is 4.92 µM (inactive); in assay [8] it was 2.11 µM (inactive); in [9], 2 µM (inactive); in assay [10], 7.78 µM (inactive); in assay [17], 3.37 µM (inactive); in assay [11], 27.5 µM (inactive). In addition, the GI50 in assay [12] is 15.6 µM (inactive); in [13], 9.75 µM (inactive); in assay [14], 6.44 µM (inactive); in assay [15], 5.52 µM (inactive); in [16], 5.56 µM (inactive).
With `Nc1nc(N)nc(-c2ccccc2NS(=O)(=O)c2ccc([N+](=O)[O-])cc2)n1`, the GI50 in [1] is > 91.2 µM (inactive); in assay [2], 17.9 µM (inactive); in [3], > 70.5 µM (inactive); in assay [4] it was over 84.5 µM; in assay [5] it was 19.3 µM (inactive); in [6], > 100 µM (inactive). The GI50 is 42.9 µM (inactive) in assay [7]; 55.8 µM (inactive) in assay [8]; 54 µM (inactive) in [9]; 40.1 µM (inactive) in [10]; > 52 µM (inactive) in assay [17]; 96.8 µM (inactive) in assay [11]. Moreover, the GI50 was > 100 µM (inactive) in assay [12]; > 52.2 µM (inactive) in assay [13]; > 100 µM (inactive) in assay [14]; > 96.6 µM (inactive) in [15]; > 54.8 µM (inactive) in [16].
With `CCOC(=O)C(C)OC(=O)c1ccc(C)cc1` (stereo not given), the GI50 was > 100 µM (inactive) in assay [1]; > 100 µM (inactive) in [2]; > 100 µM (inactive) in [3]; over 100 µM in assay [4]; > 100 µM (inactive) in assay [5]; > 100 µM (inactive) in assay [7]. The GI50 in assay [8], in assay [9], in assay [10], in assay [17], in [11] and in assay [12] was > 100 µM (inactive) in each case. The GI50 in assay [13], in assay [18], in [14], in [15] and in assay [16] was > 100 µM (inactive) in each case.
